Experimental data taken from ChEMBL document CHEMBL3792279, “Design, synthesis, and evaluation of hinge-binder tethered 1,2,3-triazolylsalicylamide derivatives as Aurora kinase inhibitors” (Bioorg Med Chem, 2016).

Tests used:
[1] = target: T1, Aurora kinase A (Homo sapiens, UniProt O14965); assay: Inhibition of human Aurora A using H-LRRASLG as substrate after 2 hrs by HotSpot assay in presence of 33P-ATP and 10 uM ATP
T1 sequence (O14965 whole entry): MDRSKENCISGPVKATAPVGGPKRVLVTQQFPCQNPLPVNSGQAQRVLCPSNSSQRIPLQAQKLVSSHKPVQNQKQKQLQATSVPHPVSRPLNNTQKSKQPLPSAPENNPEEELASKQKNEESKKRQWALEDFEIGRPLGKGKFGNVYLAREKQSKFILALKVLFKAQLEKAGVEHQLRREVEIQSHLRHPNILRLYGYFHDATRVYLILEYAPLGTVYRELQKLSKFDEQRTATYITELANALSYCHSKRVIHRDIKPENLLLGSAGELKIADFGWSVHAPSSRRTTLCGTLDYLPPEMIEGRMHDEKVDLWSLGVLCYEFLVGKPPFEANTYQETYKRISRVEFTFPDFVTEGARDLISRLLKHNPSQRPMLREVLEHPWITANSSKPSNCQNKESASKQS

[2] = target: Aurora kinase B (Homo sapiens, UniProt Q96GD4); assay: Inhibition of human Aurora B using H-LRRASLG as substrate after 2 hrs by HotSpot assay in presence of 33P-ATP and 10 uM ATP
Sequence of Aurora kinase B (Q96GD4 whole entry): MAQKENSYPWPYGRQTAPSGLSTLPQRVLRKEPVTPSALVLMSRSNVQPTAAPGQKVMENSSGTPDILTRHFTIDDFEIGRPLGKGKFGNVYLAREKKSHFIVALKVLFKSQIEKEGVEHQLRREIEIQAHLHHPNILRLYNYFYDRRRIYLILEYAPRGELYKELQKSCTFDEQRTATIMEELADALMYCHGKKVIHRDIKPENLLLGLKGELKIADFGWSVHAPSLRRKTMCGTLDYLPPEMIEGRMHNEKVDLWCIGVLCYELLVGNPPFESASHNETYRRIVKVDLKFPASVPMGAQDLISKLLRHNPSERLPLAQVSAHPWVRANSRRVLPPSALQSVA

IC50 [1] [µM] | IC50 [2] [µM] | SMILES
13.7 | 49.5 | COC(=O)c1cccc(NC(=O)c2cc(-n3cc(CNc4cc(C)[nH]n4)nn3)ccc2O)c1
3.52 | 10.2 | COC(=O)c1cccc(NC(=O)c2cc(-n3cc(CNc4nc5ccccc5o4)nn3)ccc2O)c1
0.638 | 2.19 | COC(=O)c1cccc(NC(=O)c2cc(-n3cc(-c4ccc5c(c4)OCO5)nn3)ccc2O)c1
5.15 | 36.5 | COC(=O)c1cccc(NC(=O)c2cc(-n3cc(CNc4ccccc4)nn3)ccc2O)c1
0.607 | 7.3 | COC(=O)c1cccc(NC(=O)c2cc(-n3cc(-c4ccc5nccnc5c4)nn3)ccc2O)c1
0.768 | 5.94 | COC(=O)c1cccc(NC(=O)c2cc(-n3cc(-c4cc(OC)cc(OC)c4)nn3)ccc2O)c1
2.97 | 0.364 | COC(=O)c1cccc(NC(=O)c2cc(-n3cc(CCNc4ncnc5ccsc45)nn3)ccc2O)c1
7.67 | 15.2 | COC(=O)c1cccc(NC(=O)c2cc(-n3cc(CCNc4ncccn4)nn3)ccc2O)c1
15.4 | 40.7 | COC(=O)c1cccc(NC(=O)c2cc(-n3cc(CNc4ncccn4)nn3)ccc2O)c1
12.4 | 54.8 | COC(=O)c1cccc(NC(=O)c2cc(-n3cc(CNc4cc(C)on4)nn3)ccc2O)c1
0.284 | 1.33 | COC(=O)c1cccc(NC(=O)c2cc(-n3cc(-c4cccc([N+](=O)[O-])c4)nn3)ccc2O)c1
6.07 | 16.3 | COC(=O)c1cccc(NC(=O)c2cc(-n3cc(CNc4cc(C)ccn4)nn3)ccc2O)c1
0.801 | 20.1 | COC(=O)c1cccc(NC(=O)c2cc(-n3cc(CNc4ncnc5ccsc45)nn3)ccc2O)c1
6.43 | 32.1 | COC(=O)c1cccc(NC(=O)c2cc(-n3cc(CNc4ccccn4)nn3)ccc2O)c1
